Measurements: ChEMBL document CHEMBL1128900, “Non-peptidic inhibitors of neutral endopeptidase 24.11 1. Discovery and optimization of potency” (Bioorg Med Chem Lett, 1995)

Molecular target: T1, Neprilysin (Rattus norvegicus, UniProt P07861)
T1 sequence (P07861 whole entry): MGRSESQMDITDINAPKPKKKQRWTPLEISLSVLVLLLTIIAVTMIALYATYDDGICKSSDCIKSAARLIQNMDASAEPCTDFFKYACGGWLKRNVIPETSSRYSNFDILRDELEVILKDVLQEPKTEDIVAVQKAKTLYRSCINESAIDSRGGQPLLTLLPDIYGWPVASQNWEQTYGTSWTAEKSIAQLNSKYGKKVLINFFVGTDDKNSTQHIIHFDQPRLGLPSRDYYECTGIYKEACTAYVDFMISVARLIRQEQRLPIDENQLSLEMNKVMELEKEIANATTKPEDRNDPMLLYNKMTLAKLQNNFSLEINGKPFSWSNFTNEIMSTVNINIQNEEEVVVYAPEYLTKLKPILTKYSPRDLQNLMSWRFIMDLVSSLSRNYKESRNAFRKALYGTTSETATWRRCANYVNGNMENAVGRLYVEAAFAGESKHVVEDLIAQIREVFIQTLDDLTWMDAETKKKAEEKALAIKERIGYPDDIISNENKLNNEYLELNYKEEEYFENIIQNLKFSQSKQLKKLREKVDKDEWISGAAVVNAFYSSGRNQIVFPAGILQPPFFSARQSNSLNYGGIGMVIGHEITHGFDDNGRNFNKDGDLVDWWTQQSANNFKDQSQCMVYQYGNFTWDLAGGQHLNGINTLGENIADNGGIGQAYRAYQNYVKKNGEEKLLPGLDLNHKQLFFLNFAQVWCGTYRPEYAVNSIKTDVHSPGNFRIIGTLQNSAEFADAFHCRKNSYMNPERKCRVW
Test: In vitro inhibitory activity against neutral endopeptidase (NEP)

Row | SMILES | IC50 [nM]
1 | O=P(O)(O)CN[C@@H](Cc1ccccc1)c1nnn[nH]1 | 26
2 | O=C(O)CCNC(=O)[C@H](Cc1ccc(-c2ccccc2)cc1)NCP(=O)(O)O | 1900
3 | O=C(O)[C@H](Cc1ccc(-c2cccnc2)cc1)NCP(=O)(O)O | > 1000
4 | O=C(O)CC[C@H](Cc1ccc(-c2ccccc2)cc1)NCP(=O)(O)O | 643
5 | O=C(O)C(Cc1ccccc1-c1ccccc1)NCP(=O)(O)O (configuration not stated) | > 1000
6 | O=C(NCc1ccccc1)[C@H](Cc1ccc(-c2ccccc2)cc1)NCP(=O)(O)O | 308
7 | O=C(O)/C=C/[C@H](Cc1ccc(-c2ccccc2)cc1)NCP(=O)(O)O | 32
8 | O=C(O)[C@H](Cc1ccccc1)NCP(=O)(O)O | > 1000
9 | O=C(O)[C@H](Cc1ccc(-c2ccccc2)cc1)NCCP(=O)(O)O | > 10000
10 | Cc1ccc(-c2ccc(C[C@H](NCP(=O)(O)O)C(=O)O)cc2)cc1 | 236

Next, values leading:

Row | IC50 [nM] | SMILES
11 | > 10000 | O=P(O)(O)CN[C@@H](CCc1ccccc1)c1nnn[nH]1
12 | 15 | O=C(O)C[C@H](Cc1ccc(-c2ccccc2)cc1)NCP(=O)(O)O
13 | 364 | O=P(O)(O)CN[C@@H](Cc1ccc2ccccc2c1)c1nnn[nH]1
14 | 530 | CN(CP(=O)(O)O)[C@@H](Cc1ccc(-c2ccccc2)cc1)c1nnn[nH]1
15 | 1.4 | O=C(Nc1nn[nH]n1)[C@H](Cc1ccc(-c2ccccc2)cc1)NCP(=O)(O)O
16 | 14 | COc1cc(C[C@H](NCP(=O)(O)O)C(=O)O)ccc1-c1ccccc1
17 | 1300 | NC(=O)[C@H](Cc1ccc(-c2ccccc2)cc1)NCP(=O)(O)O
18 | 15 | CC(C)Oc1ccc(C[C@H](NCP(=O)(O)O)c2nnn[nH]2)cc1
19 | 1.5 | COc1cc(C[C@H](NCP(=O)(O)O)c2nnn[nH]2)ccc1-c1ccccc1
20 | > 1000 | O=P(O)(O)CN[C@@H](Cc1ccc(-c2ccccc2)cc1)c1nnnn1Cc1ccccc1
21 | > 1000 | O=P(O)(O)CNC(c1nnn[nH]1)C(c1ccccc1)c1ccccc1 (configuration not stated)
22 | > 1000 | O=C(O)C(Cc1cccc(-c2ccccc2)c1)NCP(=O)(O)O (configuration not stated)
